The melting point is the temperature of the solid-liquid transition.

SMILES strings stand for the structures. Counter-ions that a name gives are not always drawn.

Data on 36 compounds can be found in patent US7375222B2, “2,4,6-Triamino-1,3,5-triazine derivative” (Astellas Pharma Inc., priority 2002, dated 2008).

`C#CCNc1nc(Nc2ccccc2)nc(Nc2ccccc2)n1` (as salt: HCl) [compound 16]: the melting point lay within 195 to 197 °C.
The result for `Fc1ccc(Nc2nc(NCc3ccccc3)nc(Nc3ccc(F)cc3)n2)cc1` (as salt: HCl) (hydrate or solvate) [compound 28] reads 176 to 178 °C; that for `CN(C)Nc1nc(Nc2ccccc2)nc(Nc2ccc(F)cc2)n1` (as salt: HCl) [Example 791], 154 to 156 °C.
The result for `OCCCCNc1nc(Nc2ccccc2)nc(Nc2ccc(F)cc2)n1` (as salt: HCl) [Example 775] reads 185 to 186 °C.
Consider `Fc1ccc(Nc2nc(NCc3cccs3)nc(Nc3ccc(F)cc3)n2)cc1` (as salt: HCl) [compound 31], for which the melting point fell in the range of 180 to 182 °C.
The result for `Fc1ccc(Nc2nc(NCc3ccnc(F)c3)nc(Nc3ccccc3)n2)cc1` (as salt: HCl) [Example 744] reads 175 to 177 °C; that for `[O-][n+]1ccc(CCNc2nc(Nc3ccccc3)nc(Nc3ccccc3)n2)cc1` (as salt: salt) (hydrate or solvate) [Example 740], 161 to 162 °C.
For `Fc1ccc(CNc2nc(Nc3ccc(F)cc3)nc(Nc3ccc(F)cc3)n2)cc1` (as salt: HCl) [compound 29], the melting point fell in the range of 166 to 167 °C.
The result for `OCCCNc1nc(Nc2ccccc2)nc(Nc2ccccc2)n1` (as salt: HCl) [compound 21] reads 191 to 192 °C; that for `Cc1ccc(Nc2nc(Nc3ccccc3)nc(NC(C)C)n2)cc1` (as salt: HCl) [Ex 47], 194 to 195 °C; that for `CCONc1nc(Nc2ccccc2)nc(Nc2ccc(F)cc2)n1` (as salt: HCl) (hydrate or solvate) [Example 790], 141 to 143 °C.
`c1ccc(Nc2nc(NCC3CCOCC3)nc(Nc3ccccc3)n2)cc1` (as salt: salt) (hydrate or solvate) [Example 741]: the melting point lay in the range of 191 to 193 °C.
Compound `COc1ccc(Nc2nc(Nc3ccccc3)nc(NC(C)C)n2)cc1` (as salt: HCl) (hydrate or solvate) [Ex 48] gave a melting point of 174 to 177 °C.
Consider `CC(C)Nc1nc(Nc2ccccc2)nc(Nc2ccc(Cl)cc2)n1` (as salt: HCl) [Ex 46], for which the melting point fell in the range of 201 to 203 °C.
The same measure for `OCCCCCNc1nc(Nc2ccc(F)cc2)nc(Nc2ccc(F)cc2)n1` (as salt: HCl) [compound 37]: 162 to 163 °C; for `COCCNc1nc(Nc2ccccc2)nc(Nc2ccc(F)cc2)n1` (as salt: HCl) [Example 771]: 179 to 181 °C.
In the case of `COc1cccc(Nc2nc(Nc3cccc(OC)c3)nc(NC(C)C)n2)c1` (as salt: HCl) [compound 40], the melting point lay within 180 to 182 °C.
The same measure for `Fc1ccc(Nc2nc(NCc3ccnc(F)c3)nc(Nc3ccc(Cl)cc3)n2)cc1` (as salt: HCl) [Example 797]: 214 to 215 °C.
The same measure for `CONc1nc(Nc2ccccc2)nc(Nc2ccc(F)cc2)n1` (as salt: HCl) (hydrate or solvate) [Example 789]: 140 to 141 °C; for `COCCCNc1nc(Nc2ccccc2)nc(Nc2ccccc2)n1` (as salt: HCl) [compound 18]: 154 to 155 °C.
`Nc1cccc(CNc2nc(Nc3ccccc3)nc(Nc3ccc(F)cc3)n2)n1` (hydrate or solvate) [Example 819]: the melting point lay within 164 to 165 °C.
The result for `OCCNc1nc(Nc2ccccc2)nc(Nc2ccc(F)cc2)n1` (as salt: HCl) [Example 773] reads 209 to 211 °C.
The same measure for `Fc1ccc(Nc2nc(NCc3ccco3)nc(Nc3ccc(F)cc3)n2)cc1` (as salt: HCl) [compound 30]: 179 to 180 °C; for `OCCOCCNc1nc(Nc2ccccc2)nc(Nc2ccccc2)n1` (as salt: HCl) [compound 23]: 167 to 169 °C.
`COCCNc1nc(Nc2ccccc2)nc(Nc2ccc(OC)cc2)n1` (as salt: HCl) [Example 808] had a melting point of 169 to 170 °C.
Compound `Fc1ccc(Nc2nc(NCc3ccco3)nc(Nc3ccccc3)n2)cc1` (hydrate or solvate) [Example 764] registered a melting point of 144 to 148 °C.
Turning to `Fc1ccc(Nc2nc(NCc3ccnc(F)c3)nc(Nc3ccc(F)cc3)n2)cc1` (as salt: HCl) [Example 743], the melting point is 191 to 192 °C.
Compound `OCCCNc1nc(Nc2ccccc2)nc(Nc2ccc(F)cc2)n1` (hydrate or solvate) [Example 774] yielded a melting point of 188 to 189 °C.
The result for `CSCCCNc1nc(Nc2ccccc2)nc(Nc2ccccc2)n1` (as salt: HCl) [compound 19] reads 162 to 163 °C; that for `O=C1OCCC1CNc1nc(Nc2ccccc2)nc(Nc2ccccc2)n1` (stereo not drawn) (as salt: HCl) (hydrate or solvate) [compound 24], 138 to 140 °C; that for `Fc1ccc(Nc2nc(NCC3CCCO3)nc(Nc3ccc(F)cc3)n2)cc1` (stereo not drawn) (as salt: HCl) (hydrate or solvate) [compound 36], 171 to 174 °C.
As to `CC(CCCC(C)(C)O)Nc1nc(Nc2ccccc2)nc(Nc2ccccc2)n1` (stereo not drawn) (as salt: HCl) [Example 742], the melting point is 112 to 113 °C.
The result for `COCCNc1nc(Nc2ccc(F)cc2)nc(Nc2ccc(F)cc2)n1` (as salt: HCl) [compound 35] reads 175 to 176 °C; that for `OCCCCCNc1nc(Nc2ccccc2)nc(Nc2ccc(F)cc2)n1` (as salt: HCl) [Example 776], 178 to 180 °C.
For the compound `C[C@H](CO)Nc1nc(Nc2ccccc2)nc(Nc2ccc(F)cc2)n1` (as salt: HCl) [Example 779], the melting point lay in the range of 193 to 195 °C.
The same measure for `Nc1cc(CNc2nc(Nc3ccccc3)nc(Nc3ccc(F)cc3)n2)ccn1` (as salt: salt) (hydrate or solvate) [Example 747]: 164 to 199 °C.
